Literature values in US11759493B2, “Composition for the treatment of constipation” (NEILOS S.R.L., priority 2017, dated 2023).

Assays:
[1] = patients affected by constipation, meta-analysis
[2] = 10 g, versus placebo, healthy individuals
[3] = 20 and 40 g per day, both study groups

Row | percentage of people involved in the studies affected by diarrhea (20 g of active ingredient) | diarrhea (dosage of 10 g per day) | Compound | evacuation frequency and feces consistency [1] | transit in the small intestine [2] | frequency, volume and weight of feces [3]
1 | 5-20% | absence of diarrhea | OC[C@@H](O)[C@@H](O[C@@H]1O[C@H](CO)[C@H](O)[C@H](O)[C@H]1O)[C@H](O)[C@@H](O)CO [lactitol, 4-O-β-D-galactopyranosyl-D-glucitol] | increase the evacuation frequency and the feces consistency |  | 
2 |  |  | OC[C@H]1O[C@@H](O[C@@H]2[C@@H](CO)OC(O)(CO)[C@H]2O)[C@H](O)[C@@H](O)[C@H]1O (mixture of isomers) [lactulose] |  | accelerating effect | significant increase
